Measurements as given in paper PMC7321178 (Molecules, 2020).
Several values for one entry are separate records, joined by “and”; a condition that tells them apart may be missing. Equal values may be shown once. Read-outs that look alike come from different tables or passages of the source.

Key:
[1] = biological target: T1, AChE from Electrophorus electricus (eeAChE) (Electrophorus electricus, UniProt O42275); test: biochemical; conditions: for inhibition at 10 µM: read-out: % Inhibition +/- SD (eeAChE)
T1 construct: purchased Sigma–Aldrich (Steinheim, Germany)
Description: (§1) Compounds selected through virtual screening were tested for their ability to inhibit the activity of selected biological targets. The cholinesterase-inhibitory potency of the compounds was evaluated according to Ellman’s method using AChE obtained from E. electricus (eeAChE) and BuChE obtained from equine serum (eqBuChE).
(§2) The following reagents were purchased from Sigma–Aldrich (Steinheim, Germany): 5,5′-dithiobis-(2-nitrobenzoic acid) (DNTB), acetylthiocholine iodide (ATC), butyrylthiocholine iodide (BTC), AChE from Electrophorus electricus, and BuChE from horse serum. […] The biological assay was performed using Ellman’s method which was modified for 24-well plates. For this assay, 25 µL of the tested compounds or water (in the blank samples) and 20 µL of the enzyme in 765 µL of the buffer were incubated for 5 min at 25 °C before starting the reaction. Then, 20 µL of DTNB and 20 µL of the ATC/BTC solutions were added. […] To determine the IC50 value, the absorbance measured at six different concentrations of the inhibitor was converted to % inhibition of the enzyme and plotted against the applied concentration of the inhibitor, using nonlinear regression (GraphPad Prism 5; GraphPad Software, San Diego, CA, USA). […] All the reactions were performed in triplicate. Data are expressed as the mean ± SEM.

[2] = biological target: T2, BuChE from equine serum (eqBuChE) (Equus caballus, UniProt P81908); test: biochemical; conditions: for inhibition at 10 µM: 10 µM compound concentration, mean ± standard deviation, read-out: % Inhibition +/- SD (eqBuChE)
T2 construct: BuChE obtained from equine serum (eqBuChE); purchased Sigma–Aldrich (Steinheim, Germany); host or cells: horse serum
Description: as §1, §2

eqBuChE = biological target: T3, eqBuChE (Equus caballus, UniProt P81908); test: Kinetic studies of eqBuChE inhibition (Lineweaver-Burk, Cornish-Bowden plots); type: biochemical; conditions: substrate butyrylthiocholine
T3 construct: BuChE obtained from equine serum (eqBuChE); purchased Sigma–Aldrich (Steinheim, Germany); host or cells: horse serum
Description: […]. This was carried out by making use of the calculated values of Vmax and Km of the Michaelis–Menten kinetics and further through analyzing the Lineweaver–Burk and Cornish-Bowden reciprocal plots. […] […].
Kinetic studies were carried out by following Ellman’s method modified for 96-well plates, using different concentrations of the substrate. The stock solutions of ATC and BTC (0.02125 M) were prepared in water and diluted before use. […]. Lineweaver–Burk and Cornish-Bowden plots were generated using linear regression in GraphPad Prism 5 (GraphPad Software, San Diego, CA, USA). Each experiment was performed in triplicate.

eeAChE = biological target: T4, eeAChE (Electrophorus electricus, UniProt O42275); test: Kinetic studies of eeAChE inhibition (Lineweaver-Burk, Cornish-Bowden plots); type: biochemical; conditions: substrate acetylthiocholine
T4 construct: purchased Sigma–Aldrich (Steinheim, Germany)
Description: This was carried out by making use of the calculated values of Vmax and Km of the Michaelis–Menten kinetics and further through analyzing the Lineweaver–Burk and Cornish-Bowden reciprocal plots.
Kinetic studies were carried out by following Ellman’s method modified for 96-well plates, using different concentrations of the substrate. The stock solutions of ATC and BTC (0.02125 M) were prepared in water and diluted before use. The aqueous stock solutions of enzymes (5 U/mL) were diluted to a final concentration of 0.384 U/mL. For each concentration of the test compounds, ATC or BTC was used at a concentration of 0.3, 0.24, 0.18, 0.12, 0.06, and 0.04 mM in the wells. Lineweaver–Burk and Cornish-Bowden plots were generated using linear regression in GraphPad Prism 5 (GraphPad Software, San Diego, CA, USA). Each experiment was performed in triplicate.

[3] = mean ± SEM of at least three experiments
[4] = read-out: IC50 eqBuChE [µM] +/- SEM
[5] = read-out: IC50 eeAChE [µM] +/- SEM

T1 sequence (O42275 24-633): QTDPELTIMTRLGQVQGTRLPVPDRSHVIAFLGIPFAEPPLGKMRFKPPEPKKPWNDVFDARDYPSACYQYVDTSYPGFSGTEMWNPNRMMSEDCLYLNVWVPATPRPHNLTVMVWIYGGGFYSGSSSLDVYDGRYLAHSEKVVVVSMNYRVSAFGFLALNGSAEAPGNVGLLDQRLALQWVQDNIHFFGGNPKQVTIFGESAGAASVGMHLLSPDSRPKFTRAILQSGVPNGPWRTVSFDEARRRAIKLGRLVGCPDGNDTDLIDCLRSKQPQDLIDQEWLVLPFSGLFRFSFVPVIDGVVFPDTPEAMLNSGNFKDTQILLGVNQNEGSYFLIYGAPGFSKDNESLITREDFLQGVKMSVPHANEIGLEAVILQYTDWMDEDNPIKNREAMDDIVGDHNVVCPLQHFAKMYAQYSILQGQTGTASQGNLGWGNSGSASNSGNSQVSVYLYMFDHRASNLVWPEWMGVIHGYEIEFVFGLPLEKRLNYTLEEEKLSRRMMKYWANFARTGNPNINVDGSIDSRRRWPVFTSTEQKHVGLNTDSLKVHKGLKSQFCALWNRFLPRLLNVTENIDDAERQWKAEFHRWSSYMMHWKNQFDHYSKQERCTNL
T2 sequence (P81908 whole entry): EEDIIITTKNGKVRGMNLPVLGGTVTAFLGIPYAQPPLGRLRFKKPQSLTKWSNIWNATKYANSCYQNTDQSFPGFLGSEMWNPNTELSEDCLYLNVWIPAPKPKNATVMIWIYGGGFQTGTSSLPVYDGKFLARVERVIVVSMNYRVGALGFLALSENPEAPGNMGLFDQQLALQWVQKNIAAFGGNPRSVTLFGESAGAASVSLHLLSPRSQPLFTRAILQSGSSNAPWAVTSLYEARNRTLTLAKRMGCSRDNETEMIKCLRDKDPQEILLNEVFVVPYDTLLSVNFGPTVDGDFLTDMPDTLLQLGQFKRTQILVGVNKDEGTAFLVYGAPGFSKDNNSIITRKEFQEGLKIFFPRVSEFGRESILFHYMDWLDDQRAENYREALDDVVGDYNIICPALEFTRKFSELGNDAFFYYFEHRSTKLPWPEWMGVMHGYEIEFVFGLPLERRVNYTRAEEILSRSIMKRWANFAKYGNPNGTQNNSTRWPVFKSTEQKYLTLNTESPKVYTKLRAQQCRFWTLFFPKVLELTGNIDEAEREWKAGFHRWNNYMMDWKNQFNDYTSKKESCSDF
T4 sequence (O42275 24-633): as the sequence (O42275 24-633) above
T3 sequence (P81908 whole entry): as the sequence (P81908 whole entry) above

| Structure (SMILES) | inhibition at 10 µM [1] [%] | inhibition at 10 µM [2] [%] | IC50 [2, 3] [µM] | IC50 [1, 3] [µM] | IC50 [2, 4] | IC50 [1, 5] [µM] | type of eqBuChE inhibition (eqBuChE) | type of eeAChE inhibition (eeAChE) |
| --- | --- | --- | --- | --- | --- | --- | --- | --- |
| C(#CCN1c2cccnc2Sc2cccnc21)CN1CCCC1 [Compound 1, 10-(4-Pyrrolidin-1-yl-but-2-ynyl)-1,6-diazaphenothiazine] | 45.4 ± 9.8 | 65.4 ± 3 | 5.75 ± 0.164 |  |  |  |  |  |
| C(#CCN1c2cccnc2Sc2cccnc21)CN1CCCCC1 [Compound 2, 10-(4-Piperidin-1-yl-but-2-ynyl)-1,6-diazaphenothiazine] | 60.3 ± 8.8 | 56.6 ± 2.4 | 8.94 ± 0.239 | 8.31 ± 0.315 |  |  |  |  |
| C(#CCN1c2cccnc2Sc2cccnc21)CN1CCOCC1 [Compound 3, 10-(4-Morpholin-4-yl-but-2-ynyl)-1,6-diazaphenothiazine] | 13.7 ± 1.5 | 63.6 ± 2.4 | 9.25 ± 0.275 |  |  |  |  |  |
| CN1CCCCC1CCN1c2cccnc2Sc2cccnc21 (stereo not shown) [Compound 4] | 22.4 ± 1.1 | 57 ± 7.4 | 9.49 ± 0.33 |  |  |  |  |  |
| O=C1c2ccccc2C(=O)N1CCCN1c2cccnc2Sc2cccnc21 [Compound 5] | 7.3 ± 0.9 | 52.5 ± 5.9 | 10.1 ± 0.441 |  |  |  |  |  |
| CN(C)CCCN1c2cnccc2Sc2cccnc21 [Compound 6] | 20.4 ± 3.6 | 85.8 ± 0.5 |  |  | 0.87 µM and 0.865 µM |  |  |  |
| C(#CCN1c2cnccc2Sc2cccnc21)CN1CCCC1 [Compound 7] | 57.3 ± 0.4 | 91.1 ± 0.8 |  |  | 0.929 ± 0.016 µM | 10 ± 0.604 |  |  |
| c1cnc2c(c1)Sc1ccncc1N2CCN1CCCCC1 [Compound 8] | 33.5 ± 1.6 | 66 ± 3.4 |  |  | 4.44 ± 0.049 µM |  |  |  |
| CN1CCCCC1CCN1c2cnccc2Sc2cccnc21 (stereo not shown) [Compound 9] | 58.1 ± 4.1 | 76.4 ± 0.2 |  |  | 3.03 ± 0.072 µM | 6.55 ± 0.177 |  |  |
| O=C1c2ccccc2C(=O)N1CCCN1c2cnccc2Sc2cccnc21 [Compound 10] | 49.6 ± 1.3 | 71.9 ± 4.3 |  |  | 3.67 ± 0.054 µM |  |  |  |
| CCN(CC)CC#CCN1c2ccncc2Sc2ccncc21 [Compound 11] | 20.1 ± 1.4 | 20.7 ± 0.9 |  |  |  |  |  |  |
| C(#CCN1c2ccncc2Sc2ccncc21)CN1CCCC1 [Compound 12] | 20.3 ± 1 | 31.4 ± 1.7 |  |  |  |  |  |  |
| C(#CCN1c2ccncc2Sc2ccncc21)CN1CCCCC1 [Compound 13] | 51.6 ± 3.2 | 37.6 ± 1.6 |  |  |  | 11.3 ± 0.464 |  |  |
| CCN(C)CC#CCN1c2ccncc2Sc2ncccc21 [Compound 14] | 7.7 ± 2.1 | 20.4 ± 1.9 |  |  |  |  |  |  |
| CCN(CC)CC#CCN1c2ccncc2Sc2ncccc21 [Compound 15] | 10.1 ± 3.1 | 17.2 ± 7.3 |  |  |  |  |  |  |
| C(#CCN1c2ccncc2Sc2ncccc21)CN1CCCC1 [Compound 16] | 21.9 ± 5.7 | 58.5 ± 9 | 10.4 ± 0.308 |  |  |  |  |  |
| CN1CCCCC1CCN1c2ccncc2Sc2ncccc21 (stereo not shown) [Compound 17] | 33 ± 4.5 | 16.1 ± 0.7 |  |  |  |  |  |  |
| O=C1c2ccccc2C(=O)N1CCCN1c2ccncc2Sc2ncccc21 [Compound 18] | 72.2 ± 0.7 | 30.5 ± 5.7 |  | 4.26 ± 0.078 |  |  |  |  |
| Fc1ccc2c(c1)Sc1cc3ccccc3nc1N2 [Compound 19] | 6.6 ± 1.3 | 81 ± 1.4 |  |  | 1.02 ± 0.028 µM |  |  |  |
| CN1c2ccc(F)cc2Sc2cc3ccccc3nc21 [Compound 20] | 3 ± 1.6 | 35.3 ± 12.3 |  |  |  |  |  |  |
| NCCCN1c2ccc(F)cc2Sc2cc3ccccc3nc21 [Compound 21] | 6.5 ± 2.8 | 76.3 ± 1.2 | 2.51 ± 0.047 |  |  |  |  |  |
| NCCCCN1c2ccc(F)cc2Sc2cc3ccccc3nc21 [Compound 22] | 2.3 ± 2.1 | 64.7 ± 1 | 3.93 ± 0.196 |  |  |  |  |  |
| Fc1ccc2c(c1)Sc1cc3ccccc3nc1N2CCN1CCCCC1 [Compound 23, 9-Fluoro-6-(1-piperidylethyl)quinobenzothiazine] | 27 ± 2.8 | 97.7 ± 0.5 |  |  | 0.46 µM and 0.463 µM |  |  |  |
| CCN(CC)CC#CCN1c2ccc(SC)cc2Sc2cc3ccccc3nc21 [Compound 24, 6-(4-diethylaminobut-2-ynyl)-9-methylthioquinobenzothiazine] | 83.4 ± 1.1 | 95.5 ± 0.8 |  |  | 0.535 ± 0.013 µM | 0.784 ± 0.018 | noncompetitive | noncompetitive |
| CSc1ccc2c(c1)Sc1cc3ccccc3nc1N2CC#CCN1CCCC1 [Compound 25] | 78 ± 1.4 | 99.9 ± 0.7 |  |  | 0.506 ± 0.014 µM | 2.22 ± 0.062 |  |  |
